Results as given in US8153625B2, “Nitrogen-containing heterocyclic compounds and medicinal use thereof” (Ono Pharmaceutical Co., Ltd., priority 2002, dated 2012).

Experiments:
CXCR4 = target: T1, CXCR4 (Homo sapiens, UniProt P61073); experiment: Inhibition of binding of human 125I-SDF-1 to CEM cells; conditions: 125I-SDF-1 binding to human T cell line CEM
T1 construct: a human T cell line known to express CXCR4 can be employed; endogenous in cells; host or cells: CEM (human T cell line), whole cells
T1 sequence (P61073 whole entry): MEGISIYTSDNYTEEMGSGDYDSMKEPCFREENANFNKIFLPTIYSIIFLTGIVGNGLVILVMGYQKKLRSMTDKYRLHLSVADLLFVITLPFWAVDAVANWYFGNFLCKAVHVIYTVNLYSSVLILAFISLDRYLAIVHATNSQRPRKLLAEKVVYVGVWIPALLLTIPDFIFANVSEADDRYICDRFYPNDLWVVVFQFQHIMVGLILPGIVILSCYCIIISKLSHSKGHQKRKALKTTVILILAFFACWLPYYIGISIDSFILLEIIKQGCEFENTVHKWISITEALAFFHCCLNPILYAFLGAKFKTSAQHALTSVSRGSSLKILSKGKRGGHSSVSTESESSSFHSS
Excerpt: Typically, as an assay for screening for a compound which inhibits the binding between SDF-1 and CXCR4, a system measuring the binding between an I-labeled SDF-1 and a human T cell line known to express CXCR4 can be employed. Since both of a macrophage (R5) HIV and RANTES, MIP- 1 a, MIP-1I3 bind to CCR5, a similar understanding is possible.
Inhibition of Human SDF-1 with CEM Cell
In a binding buffer solution (HEPES containing BSA), a human T cell line CEM cell was mixed with a test compound and ^125I-SDF-1 (NEN) and incubated for 60 minutes at […]. The reacted CEM cell was filtered rapidly through a GF/B membrane filter plate (Packard) to effect adsorption, followed by washing three times with PBS, drying and addition of Microscint+20 (Packard).

IC50 (CXCR4) [nM] | melting point [°C] | Compound
150 |  | c1ccc(CN2CCC(Nc3nccc(N4CCCCCC4)n3)C2)cc1 (stereo not drawn) [Example 4, 2-(1-benzylpyrrolidin-3-ylamino)-4-(perhydroazepin-1-yl)pyrimidine]
200 | 100 to 102 | Cl.Cl.NCCNc1nccc(N2CCCCCC2)n1 [Example 1(41), 2-(2-aminoethylamino)-4-(perhydroazepin-1-yl)pyrimidine dihydrochloride]
